Literature values, collected in patent publication US9610269B2, “Method of treating a disease condition susceptible to baclofen therapy” (SUN PHARMA ADVANCED RESEARCH COMPANY LTD., priority 2010, dated 2017).

How the values were obtained:
[1] = in vivo
[2] = at the actual pH values

Plasma elimination half-life [1]: approximately 3.5 hours
fraction metabolized in the liver [1]: 15%
serum concentration considered an effective concentration [1]: ≥ 80 ng/mL
lipophilicity of the drug [2]: negligible
Structure (SMILES): NCC(CC(=O)O)c1ccc(Cl)cc1 (stereo not shown) [baclofen, 4-amino-3-(p-chlorophenyl) butyric acid]
